Holding throughout (format): in vivo
For one assay, the system named is Boophilus microplus. In words: Boophilus microplus injection test. The following applies: application rate 20 μg/animal, assessed after 7 days by laying of fertile eggs. On the procedure: Boophilus microplus—Injection Test
(§1) Solvent: dimethyl sulfoxide
To produce a suitable active compound preparation, 10 mg of active compound are mixed with 0.5 ml of solvent and the concentrate is diluted to the desired concentration with solvent.
1 μl of the active ingredient solution is injected into the abdomen of 5 engorged adult female cattle ticks (Boophilus microplus). The animals are transferred into dishes and kept in a climate-controlled room.
(§2) Efficacy is assessed after 7 days by laying of fertile eggs. Eggs which are not visibly fertile are stored in a climate-controlled cabinet until the larvae hatch after about 42 days. An efficacy of 100% means that none of the ticks has laid any fertile eggs; 0% means that all the eggs are fertile.

Another assay concerns Ctenocephalides felis. In words: Ctenocephalides felis oral test. The following applies: application rate 100 ppm in citrated cattle blood, after 2 days. On the procedure:
Ctenocephalides felis—Oral Test
as §1
To produce a suitable active ingredient formulation, 10 mg of active ingredient are mixed with 0.5 ml of dimethyl sulfoxide. Dilution with citrated cattle blood gives the desired concentration.
About 20 unfed adult cat fleas (Ctenocephalides felis) are placed into a chamber which is closed at the top and bottom with gauze. A metal cylinder whose bottom end is closed with parafilm is placed onto the chamber. The cylinder contains the blood/active ingredient formulation, which can be imbibed by the fleas through the parafilm membrane.
After 2 days, the rate of extermination in % is determined. 100% means that all of the fleas have been killed; 0% means that none of the fleas have been killed.

Another assay relates to Lucilia cuprina. As to the kind of experiment: Lucilia cuprina test. The following applies: application rate 100 ppm, L1 larvae, after 2 days. On the procedure:
as §1
(§3) To produce a suitable active ingredient formulation, 10 mg of active ingredient are mixed with 0.5 ml of dimethyl sulfoxide, and the concentrate is diluted with water to the desired concentration.
About 20 L1 larvae of the Australian sheep blowfly (Lucilia cuprina) are transferred into a test vessel containing minced horsemeat and the active compound preparation of the desired concentration.
After 2 days, the rate of extermination in % is determined. 100% means that all the larvae have been killed; 0% means that no larvae have been killed.

In another assay the test system is Phaedon cochleariae. In words: Phaedon cochleariae spray test (PHAECO). The following applies: for efficacy / pest or weed control at 100 g/ha: application rate 100 g/ha, spray, after 7 days; for pest or weed control at 100 g/ha: read-out: efficacy. On the procedure: Phaedon cochleariae—Spray Test
(§4) To produce a suitable active ingredient formulation, 1 part by weight of active ingredient is dissolved with the specified parts by weight of solvent and made up to the desired concentration with water containing an emulsifier concentration of 1000 ppm. To produce further test concentrations, the formulation is diluted with emulsifier-containing water.
After 7 days, the efficacy in % is determined. 100% means that all the beetle larvae have been killed; 0% means that no beetle larvae have been killed.
Phaedon cochleariae—Spray Test (PHAECO)
(§5) To produce a suitable active compound formulation, 1 part by weight of active compound is dissolved with the specified parts by weight of solvent and made up to the desired concentration with water containing an emulsifier concentration of 1000 ppm. To produce further test concentrations, the formulation is diluted with emulsifier-containing water.
Discs of Chinese cabbage leaves (Brassica pekinensis) are sprayed with an active compound formulation of the desired concentration and, after drying, populated with larvae of the mustard beetle (Phaedon cochleariae).
After the desired time, the efficacy in % is determined. 100% means that all the beetle larvae have been killed; 0% means that no beetle larvae have been killed.

The subject of a further assay is Tetranychus urticae. As to the kind of experiment: Tetranychus urticae spray test, OP-resistant (TETRUR). The following applies: for efficacy: spray, after 6 days. On the procedure: Tetranychus urticae—Spray Test, OP-Resistant
as §4
Discs of bean leaves (Phaseolus vulgaris) infested with all stages of the greenhouse red spider mite (Tetranychus urticae) are sprayed with an active compound preparation of the desired concentration.
After 6 days, the efficacy in % is determined. 100% means that all the spider mites have been killed; 0% means that no spider mites have been killed.
Tetranychus urticae—Spray Test; OP-Resistant (TETRUR)
as §5
Discs of bean leaves (Phaseolus vulgaris) infested with all stages of the greenhouse red spider mite (Tetranychus urticae) are sprayed with an active compound formulation of the desired concentration.
After the desired time, the efficacy in % is determined. 100% means that all the spider mites have been killed; 0% means that no spider mites have been killed.

A further assay deals with Spodoptera frugiperda. In words: Spodoptera frugiperda spray test (SPODFR). The following applies: for pest or weed control at 100 g/ha / efficacy: application rate 100 g/ha, spray, after 7 days; for pest or weed control at 100 g/ha: read-out: efficacy. On the procedure:
Spodoptera frugiperda—Spray Test
as §4
Leaf discs of maize (Zea mays) are sprayed with an active ingredient formulation of the desired concentration and, after drying, populated with caterpillars of the armyworm (Spodoptera frugiperda).
After 7 days, the efficacy in % is determined. 100% means that all the caterpillars have been killed; 0% means that no caterpillar has been killed.
Spodoptera frugiperda—Spray Test (SPODFR)
as §5
Leaf discs of maize (Zea mays) are sprayed with an active compound formulation of the desired concentration and, after drying, populated with caterpillars of the armyworm (Spodoptera frugiperda).
After the desired time, the efficacy in % is determined. 100% means that all the caterpillars have been killed; 0% means that no caterpillar has been killed.

In another assay the test system is Rhipicephalus sanguineus. As to the kind of experiment: Rhipicephalus sanguineus in vitro contact test with adult brown dog ticks. The following applies: application rate 5 μg/cm^2 (=500 g/ha), after 48 h, adult dog ticks dead or moribund. On the procedure:
Rhipicephalus sanguineus—In Vitro Contact Tests with Adult Brown Dog Ticks
For the coating of the test tubes, 9 mg of active ingredient are first dissolved in 1 ml of acetone p.a. and then diluted to the desired concentration with acetone p.a. 250 μl of the solution are distributed homogeneously on the inner walls and the base of a 25 ml glass tube by turning and rocking on an orbital shaker (rocking rotation at 30 rpm for 2 h). With 900 ppm of active ingredient solution and internal surface area 44.7 cm^2, given homogeneous distribution, an area-based dose of 5 μg/cm^2 is achieved.
After the solvent has evaporated off, the tubes are populated with 5-10 adult dog ticks (Rhipicephalus sanguineus), sealed with a perforated plastic lid and incubated in a horizontal position in the dark at room temperature and ambient humidity. After 48 h, efficacy is determined. To this end, the ticks are knocked to the base of the tube and incubated on a hotplate at 45-50° C. for not more than 5 min. Ticks which remain motionless on the base or move in such an uncoordinated manner that they are unable to deliberately avoid the heat by climbing upwards are considered to be dead or moribund.
An efficacy of 100% means that all the ticks were dead or moribund. 0% efficacy means that none of the ticks were harmed.

In another assay the test system is Musca domestica. As to the kind of experiment: Musca domestica test. The following applies: application rate 100 ppm, adult houseflies, after 2 days. On the procedure:
as §1, §3
Vessels containing a sponge treated with sugar solution and the active ingredient formulation of the desired concentration are populated with 10 adult houseflies (Musca domestica).
After 2 days, the rate of extermination in % is determined. 100% means that all of the flies have been killed; 0% means that none of the flies have been killed.

For another assay, the system named is Myzus persicae. In words: Myzus persicae spray test (MYZUPE). The following applies: Myzus persicae, 144 h; MYZUPE, 100 g ai/ha, 6 dat; read-out: % efficacy dat. On the procedure:
Myzus persicae—Spray Test
as §4
Discs of Chinese cabbage leaves (Brassica pekinensis) infested by all stages of the green peach aphid (Myzus persicae) are sprayed with an active compound preparation of the desired concentration.
After 5 days, the efficacy in % is determined. 100% means that all the aphids have been killed; 0% means that no aphids have been killed.
Myzus Persicae—Spray Test (MYZUPE)
as §5
Discs of Chinese cabbage leaves (Brassica pekinensis) infested with all stages of the green peach aphid (Myzus persicae) are sprayed with an active compound formulation of the desired concentration.
After the desired time, the efficacy in % is determined. 100% means that all the aphids have been killed; 0% means that no aphids have been killed.

The test system of assay [1] is cattle ticks (Boophilus microplus) Parkhurst strain, SP-resistant. In words: Boophilus microplus dip test. The following applies: application rate 100 ppm, assessed after 7 days by laying of fertile eggs. On the procedure: Boophilus microplus—Dip Test
Test animals: cattle ticks (Boophilus microplus) Parkhurst strain, SP-resistant
as §1
10 mg of active ingredient are dissolved in 0.5 ml of dimethyl sulfoxide. To produce a suitable formulation, the active ingredient solution is diluted with water to the concentration desired in each case. This active ingredient formulation is pipetted into tubes. 8-10 engorged adult female cattle ticks (Boophilus microplus) are transferred into a further tube with holes. The tube is immersed into the active ingredient formulation, and all the ticks are completely wetted. After the liquid has run out, the ticks are transferred on filter discs into plastic dishes and stored in a climate-controlled room.
as §2

Molecules are shown by their SMILES.

As for `Cn1cc(-c2cnn(-c3c(Cl)cc(C(F)(C(F)(F)F)C(F)(F)F)cc3Cl)c2)cc1C(=O)NC1(C#N)CC1` [I-T1-4], the efficacy in the assay on Boophilus microplus and in the assay with Phaedon cochleariae was 100% in each case. Further, the “efficacy (rate of extermination)” value with Ctenocephalides felis and in the assay on Lucilia cuprina was 100% throughout.

`N#CC1(NC(=O)c2cc(-c3cnn(-c4c(Cl)cc(C(F)(C(F)(F)F)C(F)(F)F)cc4Cl)c3)sc2Cl)CC1` [I-T1-17, 2-chloro-N-(1-cyanocyclopropyl)-5-{1-[2,6-dichloro-4-(1,1,1,2,3,3,3-heptafluoropropan-2-yl)phenyl]-1H-pyrazol-4-yl}thiophene-3-carboxamide]: the efficacy in the assay with Tetranychus urticae (application rate 20 g/ha) and in the assay on Tetranychus urticae (application rate 100 g/ha) was 100% in each case. Also, the pest or weed control at 100 g/ha came to 100% in the assay on Spodoptera frugiperda (Spodoptera frugiperda, 168 h) and 100% in the assay with Phaedon cochleariae (Phaedon cochleariae, 168 h).

Take `N#CC1(NC(=O)c2cc(-c3cnn(-c4c(Cl)cc(C(F)(C(F)(F)F)C(F)(F)F)cc4Cl)c3)sc2I)CC1` [I-T1-15]: the efficacy in the assay on Tetranychus urticae (application rate 20 g/ha) is listed as 90%; in the assay with Tetranychus urticae (application rate 100 g/ha), 100%; in the assay with Boophilus microplus, 100%; with Rhipicephalus sanguineus it was 80%; in the assay with Spodoptera frugiperda, 100%; with Phaedon cochleariae, 100%. Further, the “efficacy (rate of extermination)” value in the assay on Ctenocephalides felis, in the assay with Musca domestica and in the assay on Lucilia cuprina was 100% in each case.

As for `N#CC1(NC(=O)c2csc(-c3cnn(-c4c(Cl)cc(C(F)(C(F)(F)F)C(F)(F)F)cc4Cl)c3)n2)CC1` [I-T1-5, N-(1-cyanocyclopropyl)-2-{1-[2,6-dichloro-4-(1,1,1,2,3,3,3-heptafluoropropan-2-yl)phenyl]-1H-pyrazol-4-yl}-1,3-thiazole-4-carboxamide], the “efficacy (rate of extermination)” value with Ctenocephalides felis amounted to 100%; with Musca domestica, 90%; in the assay with Lucilia cuprina, 80%. Further, the pest or weed control at 100 g/ha in the assay with Phaedon cochleariae (Phaedon cochleariae, 168 h) came to 100%.

Regarding `O=C(NC1CC1)c1csc(-c2cnn(-c3c(Cl)cc(C(F)(C(F)(F)F)C(F)(F)F)cc3Cl)c2)n1` [I-T1-8], the “efficacy (rate of extermination)” value amounted to 100% in the assay with Ctenocephalides felis and 80% in the assay on Lucilia cuprina. This compound also yielded an efficacy in the assay with Phaedon cochleariae of 83%.

For `O=C(NC1CC1)c1nc(-c2cnn(-c3c(Cl)cc(C(F)(C(F)(F)F)C(F)(F)F)cc3Cl)c2)sc1Cl` [I-T1-7], the efficacy came out at 100% in the assay on Boophilus microplus and 83% in the assay on Phaedon cochleariae.

Turning to `O=C(NCc1ccccc1)c1cc(-c2cnn(-c3c(Cl)cc(C(F)(C(F)(F)F)C(F)(F)F)cc3Cl)c2)sc1Br` [I-T1-6], the efficacy in the assay with Boophilus microplus and with Spodoptera frugiperda was 100% each time. Also, the “efficacy (rate of extermination)” value in the assay with Ctenocephalides felis is reported as 100%; in the assay on Lucilia cuprina it was 95%.

Consider `CS(=O)(=O)NC(=O)c1csc(-c2cnn(-c3cccnc3)c2)n1` [Example No. 36 WO2012/000896, reference compound], for which the Emax at 500 g/ha with Tetranychus urticae (Tetranychus urticae, 144 h, TETRUR, 500 g ai/ha, 6 dat, read-out: % efficacy dat) was determined as 0%; with Spodoptera frugiperda (Spodoptera frugiperda, 168 h, SPODFR, 500 g ai/ha, 7 dat, read-out: % efficacy dat), 0%; in the assay with Phaedon cochleariae (Phaedon cochleariae, 168 h, PHAECO, 500 g ai/ha, 7 dat, read-out: % efficacy dat), 0%. The Emax at 100 g/ha in the assay with Myzus persicae was found to be 0%.

For the compound `CN(C(=O)c1cc(-c2cnn(-c3c(Cl)cc(C(F)(C(F)(F)F)C(F)(F)F)cc3Cl)c2)sc1Cl)C1(C#N)CC1` [I-T1-18, 2-chloro-N-(1-cyanocyclopropyl)-5-{1-[2,6-dichloro-4-(1,1,1,2,3,3,3-heptafluoropropan-2-yl)phenyl]-1H-pyrazol-4-yl}-N-methylthiophene-3-carboxamide], the pest or weed control at 100 g/ha with Spodoptera frugiperda (Spodoptera frugiperda, 168 h) amounted to 100%; with Phaedon cochleariae (Phaedon cochleariae, 168 h), 100%.

As to `O=C(NC1CC1)c1cc(-c2cnn(-c3c(Cl)cc(C(F)(C(F)(F)F)C(F)(F)F)cc3Cl)c2)sc1I` [I-T1-14], the efficacy (with Tetranychus urticae (application rate 100 g/ha); with Boophilus microplus; in [1]; in the assay on Rhipicephalus sanguineus; in the assay with Spodoptera frugiperda; with Phaedon cochleariae) was 100% throughout. In addition, the “efficacy (rate of extermination)” value in the assay on Ctenocephalides felis, in the assay on Musca domestica and with Lucilia cuprina was 100% each time.

The values above are taken from patent US11825838B2, “Tricyclic carboxamides for controlling arthropods” (Bayer CropScience Aktiengesellschaft, priority 2017, dated 2023).
